Numbering of substitutions follows the chain as printed. Like-named read-outs stand apart in the source and are kept apart here.
Tests used:
FGFR4 [1] = system: FGFR4; parameters: method as in PMID 28665128; details: cited from earlier work
CSF-1R [2] = system: CSF-1R; parameters: method as in PMID 28665128; details: cited from earlier work
FGFR3 [3] = system: FGFR3; parameters: method as in PMID 28665128; details: cited from earlier work
FGFR4 [4] = biological target: T1, FGFR4 (Homo sapiens, UniProt P22455); assay: Kinase inhibition assay (ADP-Glo), FGFR4; assay type: biochemical
T1 construct: FGFR4 (residues 445–753); 6×His (PreScission-cleavable) (N, cleaved yes); made in house; host or cells: E. coli BL21 Rosetta
Procedure: (§1) FGFRs were prepared as previously described[6],[34],[44],[45]. Briefly, FGFR1 (residues 458–765), FGFR2 (residues 458–768), FGFR3 (residues 450–758) as well as FGFR4 (residues 445–753), and their mutants, FGFR1^C584S, FGFR1^V561M, FGFR2^V564I, FGFR2^V564F and FGFR3^V555M, were cloned into a modified pET28a vector in frame with an N-terminal PreScission-cleavable 6×His tag and expressed in E. coli BL21 Rosetta cells. For crystallization, FGFR1^C584S was co-expressed with untagged YOPH to induce non-phosphorylated proteins. The harvested cell pellets were lysed in a buffer containing 20 mM Tris-HCl, pH 8.0, 500 mM NaCl, 20 mM imidazole and 0.5 mM TCEP, and FGFRs were purified over Ni-NTA resin followed by enzymatic digestion with PreScission for 6×His-tag cleavage and further purified by anion exchange chromatography (GE Healthcare). For crystallization, FGFR1^C584S was further purified by gel filtration chromatography (GE Healthcare). […]
(§2) The inhibition by sulfatinib was determined by the measurement of kinase activities following the ADP-Glo assay kit (Promega)[6],[44],[45]. […] Following the addition of detection reagent to convert the generated ADP to ATP, the luminescence was detected by a plate reader (Perkin Elmer). Samples were run in triplicate and the IC50 values were calculated by log[Inhibitor] versus kinase activity ratio in GraphPad Prism 8.0.

FGFR3^V555M = biological target: T2, FGFR3^V555M (Homo sapiens, UniProt P22607, V555M); assay: Kinase inhibition assay (ADP-Glo), FGFR3 V555M gatekeeper mutant; assay type: biochemical
T2 construct: FGFR3 (residues 450–758); 6×His (PreScission-cleavable) (N, cleaved yes); made in house; host or cells: E. coli BL21 Rosetta
Procedure: as §1, §2

FGFR3 [5] = biological target: T3, FGFR3 (Homo sapiens, UniProt P22607); assay: Kinase inhibition assay (ADP-Glo), FGFR3; assay type: biochemical; details: wild-type kinase domain
T3 construct: FGFR3 (residues 450–758); 6×His (PreScission-cleavable) (N, cleaved yes); made in house; host or cells: E. coli BL21 Rosetta
Procedure: as §1, §2

FGFR2^V564I = biological target: T4, FGFR2^V564I (Homo sapiens, UniProt P21802, V564I); assay: Kinase inhibition assay (ADP-Glo), FGFR2 V564I gatekeeper mutant; assay type: biochemical
T4 construct: FGFR2 (residues 458–768); 6×His (PreScission-cleavable) (N, cleaved yes); made in house; host or cells: E. coli BL21 Rosetta
Procedure: as §1, §2

CSF-1R [6] = biological target: T5, CSF-1R (Homo sapiens, UniProt P07333, C667T/C830S/C907T/DEL696-741); assay: Kinase inhibition assay (ADP-Glo), CSF-1R; assay type: biochemical; details: wild-type kinase domain
T5 construct: Wild-type CSF-1R (residues 542–919, △696–741, C677T, C830S, C907T); 6×His (N); made in house; host or cells: SF9 insect cells (baculovirus)
T5 sequence (P07333 with tags, fused parts or gaps C667T/DEL696-741/C830S/C907T): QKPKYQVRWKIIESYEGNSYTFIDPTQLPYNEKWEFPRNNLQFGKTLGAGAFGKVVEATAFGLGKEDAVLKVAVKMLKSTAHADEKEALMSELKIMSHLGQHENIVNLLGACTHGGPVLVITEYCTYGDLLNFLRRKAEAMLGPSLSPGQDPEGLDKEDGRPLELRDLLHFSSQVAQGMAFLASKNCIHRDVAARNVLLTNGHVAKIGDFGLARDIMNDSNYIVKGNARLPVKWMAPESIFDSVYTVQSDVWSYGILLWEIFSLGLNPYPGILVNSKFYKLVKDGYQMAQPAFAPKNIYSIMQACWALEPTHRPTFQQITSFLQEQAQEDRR
Procedure: (§3) Wild-type CSF-1R (residues 542–919, △696–741, C677T, C830S, C907T) and CSF-1R^T663I carrying an N-terminal 6×His tag was cloned into a pFastBac expression vector, and was expressed in SF9 cells using the Invitrogen Bac-to-Bac Baculovirus Expression System[41]. For crystallization, CSF-1R was co-expressed with N-terminal GST-tagged YOPH to induce non-phosphorylated proteins. The harvested cell pellets were lysed by sonication in lysis buffer consisting of 40 mM K-phosphate, pH 8.0, 200 mM NaCl, 0.5 mM PMSF, and protease inhibitor mixture (EDTA-free, Roche). After centrifugation, the clarified cell lysate was supplemented with 20 mM imidazole, and incubated with Ni-NTA beads (GE Healthcare). The Ni-NTA bead-bound CSF-1R protein was eluted using 25 mM HEPES, pH 7.0, 150 mM NaCl and 200 mM imidazole, and was subsequently supplemented with 10 mM DTT after elution. […]
as §2

FGFR1 = biological target: T6, FGFR1 (Homo sapiens, UniProt P11362); assay: Kinase inhibition assay (ADP-Glo), FGFR1; assay type: biochemical; details: wild-type kinase domain
T6 construct: FGFR1 (residues 458–765); 6×His (PreScission-cleavable) (N, cleaved yes); made in house; host or cells: E. coli BL21 Rosetta
Procedure: as §1, §2

CSF-1R^T663I = biological target: T7, CSF-1R^T663I (Homo sapiens, UniProt P07333, C667T/C830S/C907T/DEL696-741/T663I); assay: Kinase inhibition assay (ADP-Glo), CSF-1R T663I gatekeeper mutant; assay type: biochemical; details: read-out: Kinase inhibitory activity CSF-1R^T663I IC50
T7 sequence (P07333 with tags, fused parts or gaps T663I/C667T/DEL696-741/C830S/C907T): T5 sequence (P07333 with tags, fused parts or gaps C667T/DEL696-741/C830S/C907T) with T122I
Procedure: as §3, §2

FGFR1^V561M = biological target: T8, FGFR1^V561M (Homo sapiens, UniProt P11362, V561M); assay: Kinase inhibition assay (ADP-Glo), FGFR1 V561M gatekeeper mutant; assay type: biochemical
T8 construct: FGFR1 (residues 458–765); 6×His (PreScission-cleavable) (N, cleaved yes); made in house; host or cells: E. coli BL21 Rosetta
Procedure: as §1, §2

FGFR2^V564F = biological target: T9, FGFR2^V564F (Homo sapiens, UniProt P21802, V564F); assay: Kinase inhibition assay (ADP-Glo), FGFR2 V564F gatekeeper mutant; assay type: biochemical
T9 construct: FGFR2 (residues 458–768); 6×His (PreScission-cleavable) (N, cleaved yes); made in house; host or cells: E. coli BL21 Rosetta
Procedure: as §1, §2

FGFR2 = biological target: T10, FGFR2 (Homo sapiens, UniProt P21802); assay: Kinase inhibition assay (ADP-Glo), FGFR2; assay type: biochemical; details: wild-type kinase domain
T10 construct: FGFR2 (residues 458–768); 6×His (PreScission-cleavable) (N, cleaved yes); made in house; host or cells: E. coli BL21 Rosetta
Procedure: as §1, §2

T8 sequence (P11362 458-765 V561M): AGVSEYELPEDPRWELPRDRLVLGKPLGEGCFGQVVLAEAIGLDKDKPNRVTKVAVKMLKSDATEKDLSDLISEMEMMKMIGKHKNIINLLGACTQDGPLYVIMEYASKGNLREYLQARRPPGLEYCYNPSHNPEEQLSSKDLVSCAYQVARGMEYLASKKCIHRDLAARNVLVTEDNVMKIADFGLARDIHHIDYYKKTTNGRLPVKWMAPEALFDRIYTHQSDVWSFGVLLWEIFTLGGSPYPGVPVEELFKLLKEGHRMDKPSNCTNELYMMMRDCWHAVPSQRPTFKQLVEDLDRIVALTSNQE
T4 sequence (P21802 458-768 V564I): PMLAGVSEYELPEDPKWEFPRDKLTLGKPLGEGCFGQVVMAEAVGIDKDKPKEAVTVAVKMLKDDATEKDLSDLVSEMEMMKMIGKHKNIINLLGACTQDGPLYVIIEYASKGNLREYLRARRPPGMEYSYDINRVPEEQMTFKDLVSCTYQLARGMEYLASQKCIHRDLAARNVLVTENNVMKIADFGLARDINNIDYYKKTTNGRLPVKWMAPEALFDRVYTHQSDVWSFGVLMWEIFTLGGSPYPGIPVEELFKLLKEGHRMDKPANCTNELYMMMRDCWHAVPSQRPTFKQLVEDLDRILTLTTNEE
T9 sequence (P21802 458-768 V564F): as the sequence (P21802 458-768 V564I) above, with I107F counted along it
T1 sequence (P22455 445-753): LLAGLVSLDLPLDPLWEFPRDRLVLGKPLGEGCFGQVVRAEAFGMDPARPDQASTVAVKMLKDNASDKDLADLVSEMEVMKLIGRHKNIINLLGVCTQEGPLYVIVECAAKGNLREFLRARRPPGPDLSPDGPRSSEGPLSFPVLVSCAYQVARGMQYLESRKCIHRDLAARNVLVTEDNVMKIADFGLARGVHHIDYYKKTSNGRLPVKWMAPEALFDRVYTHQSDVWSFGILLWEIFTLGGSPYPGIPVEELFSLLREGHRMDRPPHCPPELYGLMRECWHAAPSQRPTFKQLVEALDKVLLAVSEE
T2 sequence (P22607 450-758 V555M): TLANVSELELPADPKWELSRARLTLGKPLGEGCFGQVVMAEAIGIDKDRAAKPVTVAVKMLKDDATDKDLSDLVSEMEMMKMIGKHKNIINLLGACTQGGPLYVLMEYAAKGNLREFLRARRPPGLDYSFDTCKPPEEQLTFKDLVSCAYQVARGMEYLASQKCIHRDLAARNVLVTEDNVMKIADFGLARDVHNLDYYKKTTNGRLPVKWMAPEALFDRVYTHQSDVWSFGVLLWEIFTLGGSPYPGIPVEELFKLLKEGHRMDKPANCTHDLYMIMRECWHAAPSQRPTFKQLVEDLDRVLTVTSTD
T6 sequence (P11362 458-765): as the sequence (P11362 458-765 V561M) above, with M104V counted along it
T3 sequence (P22607 450-758): as the sequence (P22607 450-758 V555M) above, with M106V counted along it
T10 sequence (P21802 458-768): as the sequence (P21802 458-768 V564I) above, with I107V counted along it

Q: What does the source list for `C=CC(=O)N1CCN(CCCn2c(=O)c(-c3c(Cl)c(OC)cc(OC)c3Cl)cc3cnc(NC)nc32)CC1` [PRN1371, 8-(3-(4-Acryloylpiperazin-1-yl)propyl)-6-(2,6-dichloro-3,5-dimethoxyphenyl)-2-(methylamino)pyrido[2,3-d]pyrimidin-7(8H)-one]?
A: IC50 (FGFR4 [1]): 19.3 nM; IC50 (CSF-1R [2]): 8.1 nM; IC50 (FGFR3 [3]): […]

Q: For `Cc1cc2cc(Oc3ccnc(Nc4cccc(CS(=O)(=O)NCCN(C)C)c4)n3)ccc2[nH]1` [sulfatinib], which “reduction in efficacy for FGFR4” value (FGFR4 [4]; FGFR4 IC50 compared with FGFR1) is on record?
A: approximately 26 fold

Q: And the IC50 (FGFR4 [4]; wild-type kinase domain, ADP-Glo)?
A: 889 nM

Q: And the IC50 (FGFR3^V555M; ADP-Glo, read-out: Kinase inhibitory activity FGFR3^V555M IC50)?
A: > 5000 nM

Q: What about the IC50 (FGFR3^V555M; bound stated, read-out: IC50 for FGFR3^V555M) of the same compound?
A: > 2000 nM

Q: And the IC50 (FGFR3 [5])?
A: 28 nM

Q: And the IC50 (FGFR2^V564I; ADP-Glo, read-out: Kinase inhibitory activity FGFR2^V564I IC50)?
A: 3490 nM

Q: And the IC50 (FGFR2^V564I; bound stated, read-out: IC50 for FGFR2^V564I)?
A: > 2000 nM

Q: And the IC50 (CSF-1R [6])?
A: 5 nM

Q: And the IC50 (FGFR1)?
A: 34 nM

Q: What about the IC50 (CSF-1R^T663I) of the same compound?
A: 4 nM

Q: What about the IC50 (FGFR1^V561M; ADP-Glo, read-out: Kinase inhibitory activity FGFR1^V561M IC50) of the same compound?
A: > 5000 nM

Q: And the IC50 (FGFR1^V561M; bound stated, read-out: IC50 for FGFR1^V561M)?
A: > 2000 nM

Q: What about the IC50 (FGFR2^V564F; ADP-Glo, read-out: Kinase inhibitory activity FGFR2^V564F IC50) of the same compound?
A: 2970 nM

Q: And the IC50 (FGFR2^V564F; bound stated, read-out: IC50 for FGFR2^V564F)?
A: > 2000 nM

Q: And the IC50 (FGFR2)?
A: 21 nM
